{"source": "patent US11959929B2", "about": "“Method of quantifying lysergic acid diethylamide (LSD) and 2,3-dihydro-3-hydroxy-2-oxo lysergide (O-H-LSD) in human plasma” (Universitatsspital Basel, priority 2020, dated 2024)", "key": {"[1]": {"test": "Freeze/thaw stability tests in human plasma (three cycles, about −20° C.)", "assay_type": "physicochemical", "details": "for Change in concentration [%]: 3 F/T cycles vs Baseline; for Accuracy: single QC replicate", "excerpt": "(§1) Each analyte had to be stable in human plasma for at least three freeze-thaw cycles (for repeated sample preparations) and at ambient temperature for at least eight hours (maximal duration of sample preparation). Measured samples should be stable for a second injection when the first analytical run was not valid. The analytes had to be stable in the matrix at the intended storage temperatures and study duration.\n(§2) An analyte was considered stable at one of the above tests when no increase or decrease of the analyte concentration of more than 15% for the mean of at least three analyzed QC samples at low, medium and at high concentration was observed.\nSeven of each LLOQ, QCLOW, QCMID, QCHIGH, and ULOQ sample in human plasma were stored at about −20° C. for at least 24 hours and thawed unassisted at ambient temperature. When completely thawed, the samples were refrozen for at least 12 hours under the same conditions. The freeze-thaw cycle was repeated two more times. After the third cycle the samples were worked up and analyzed. The concentrations in the frozen and thawed samples were compared with freshly processed QC samples. Concentrations were calculated based on two freshly prepared CALs measured at the beginning and the other at the end of the validation run."}, "[2]": {"test": "Bench-top (short-term) stability test in human plasma, 8 hours at ambient temperature", "assay_type": "physicochemical", "details": "for Change in concentration [%]: 8 h at RT vs Baseline; for Accuracy: single QC replicate", "excerpt": "as §1, §2\nSeven of each LLOQ, QCLOW, QCMID, QCHIGH, and ULOQ samples in human plasma were thawed at ambient temperature and kept at this temperature for 8 hours. Afterwards, the samples were worked up and analyzed. The values of the concentrations in the “short-term” samples were compared with freshly processed QC samples. Concentrations were calculated based on two freshly prepared CAL sets measured at the beginning and the end of the validation run."}, "[3]": {"details": "QCHIGH: 1000 pg/ml, 3 F/T cycles"}, "[4]": {"details": "ULOQ: 10000 pg/ml, 3 F/T cycles"}}, "note": "Several values for one entry are separate records, joined by “and”; a condition that tells them apart may be missing. Equal entries are not always repeated.", "data": [{"compound": "CCN(CC)C(=O)C1C=C2c3cccc4c3C(O)(C[C@H]2N(C)C1)C(=O)N4", "note": "(stereo partly drawn) [O-H-LSD, 2,3-dihydro-3-hydroxy-2-oxo lysergide]", "values": [{"measurement": "Accuracy, Intra-assay Mean", "setting": "[1]; LLOQ: 10 pg/ml, 3 F/T cycles", "value": 97, "unit": "%"}, {"measurement": "Found at, Intra-assay Mean", "setting": "[1]; LLOQ: 10 pg/ml, 3 F/T cycles", "value": 9.7, "unit": "pg/mL"}, {"measurement": "Change in concentration [%]", "setting": "[1]; LLOQ: 10 pg/ml", "value": 6.46, "unit": "%"}, {"measurement": "Accuracy", "setting": "[1]; LLOQ: 10 pg/ml, 3 F/T cycles", "value": "95.9% and 97.1% and 81.7% and 95.2% and 108% and 104% and 73.9* %"}, {"measurement": "Accuracy, Intra-assay Mean", "setting": "[1]; LLOQ: 10 pg/ml, Baseline", "value": 91.1, "unit": "%"}, {"measurement": "Found at, Intra-assay Mean", "setting": "[1]; LLOQ: 10 pg/ml, Baseline", "value": 9.11, "unit": "pg/mL"}, {"measurement": "Accuracy", "setting": "[1]; LLOQ: 10 pg/ml, Baseline", "value": "95% and 88.9% and 89.4%"}, {"measurement": "Accuracy, Intra-assay Mean", "setting": "[1]; [3]", "value": 96.7, "unit": "%"}, {"measurement": "Found at, Intra-assay Mean", "setting": "[1]; [3]", "value": 967, "unit": "pg/mL"}, {"measurement": "Change in concentration [%]", "setting": "[1]; QCHIGH: 1000 pg/ml", "value": 0.123, "unit": "%"}, {"measurement": "Accuracy", "setting": "[1]; [3]", "value": "95% and 93.1% and 97.5% and 96.2% and 99.5% and 97.7% and 98.1%"}, {"measurement": "Accuracy, Intra-assay Mean", "setting": "[1]; QCHIGH: 1000 pg/ml, Baseline", "value": 96.6, "unit": "%"}, {"measurement": "Found at, Intra-assay Mean", "setting": "[1]; QCHIGH: 1000 pg/ml, Baseline", "value": 966, "unit": "pg/mL"}, {"measurement": "Accuracy", "setting": "[1]; QCHIGH: 1000 pg/ml, Baseline", "value": "97.7% and 96.2% and 95.9%"}, {"measurement": "Accuracy, Intra-assay Mean", "setting": "[1]; QCLOW: 25 pg/ml, 3 F/T cycles", "value": 96.9, "unit": "%"}, {"measurement": "Found at, Intra-assay Mean", "setting": "[1]; QCLOW: 25 pg/ml, 3 F/T cycles", "value": 24.2, "unit": "pg/mL"}, {"measurement": "Change in concentration [%]", "setting": "[1]; QCLOW: 25 pg/ml", "value": 1.57, "unit": "%"}, {"measurement": "Accuracy", "setting": "[1]; QCLOW: 25 pg/ml, 3 F/T cycles", "value": "109% and 96.6% and 91.4% and 101% and 97.5% and 89.3% and 92.9%"}, {"measurement": "Accuracy, Intra-assay Mean", "setting": "[1]; QCLOW: 25 pg/ml, Baseline", "value": 95.3, "unit": "%"}, {"measurement": "Found at, Intra-assay Mean", "setting": "[1]; QCLOW: 25 pg/ml, Baseline", "value": 23.8, "unit": "pg/mL"}, {"measurement": "Accuracy", "setting": "[1]; QCLOW: 25 pg/ml, Baseline", "value": "94.7% and 91.5% and 99.8%"}, {"measurement": "Accuracy, Intra-assay Mean", "setting": "[1]; QCMID: 100 pg/ml, 3 F/T cycles", "value": 98.7, "unit": "%"}, {"measurement": "Found at, Intra-assay Mean", "setting": "[1]; QCMID: 100 pg/ml, 3 F/T cycles", "value": 98.7, "unit": "pg/mL"}, {"measurement": "Change in concentration [%]", "setting": "[1]; QCMID: 100 pg/ml", "value": 3.7, "unit": "%"}, {"measurement": "Accuracy", "setting": "[1]; QCMID: 100 pg/ml, 3 F/T cycles", "value": "95.4% and 102% (2×) and 98.9% and 100% and 94.8% and 97.3%"}, {"measurement": "Accuracy, Intra-assay Mean", "setting": "[1]; QCMID: 100 pg/ml, Baseline", "value": 95.2, "unit": "%"}, {"measurement": "Found at, Intra-assay Mean", "setting": "[1]; QCMID: 100 pg/ml, Baseline", "value": 95.2, "unit": "pg/mL"}, {"measurement": "Accuracy", "setting": "[1]; QCMID: 100 pg/ml, Baseline", "value": "95.7% and 98.6% and 91.4%"}, {"measurement": "Accuracy, Intra-assay Mean", "setting": "[1]; [4]", "value": 94.9, "unit": "%"}, {"measurement": "Found at, Intra-assay Mean", "setting": "[1]; [4]", "value": 9490, "unit": "pg/mL"}, {"measurement": "Change in concentration [%]", "setting": "[1]; ULOQ: 10000 pg/ml", "value": "−0.589", "unit": "%"}, {"measurement": "Accuracy", "setting": "[1]; [4]", "value": "92.9% and 92.6% and 96.2% and 96% and 94.8% and 94.4% and 97.2%"}, {"measurement": "Accuracy, Intra-assay Mean", "setting": "[1]; ULOQ: 10000 pg/ml, Baseline", "value": 95.4, "unit": "%"}, {"measurement": "Found at, Intra-assay Mean", "setting": "[1]; ULOQ: 10000 pg/ml, Baseline", "value": 9540, "unit": "pg/mL"}, {"measurement": "Accuracy", "setting": "[1]; ULOQ: 10000 pg/ml, Baseline", "value": "94.2% and 92.3% and 99.7%"}, {"measurement": "Change in plasma concentration following three freeze/thaw cycles", "setting": "[1]; human plasma QC samples, −20° C., three freeze/thaw cycles, vs freshly processed QC", "value": "≤ 6.46", "unit": "%"}, {"measurement": "Accuracy, Intra-assay Mean", "setting": "[2]; LLOQ: 10 pg/ml, 8 h at RT", "value": 91.2, "unit": "%"}, {"measurement": "Found at, Intra-assay Mean", "setting": "[2]; LLOQ: 10 pg/ml, 8 h at RT", "value": 9.13, "unit": "pg/mL"}, {"measurement": "Change in concentration [%]", "setting": "[2]; LLOQ: 10 pg/ml", "value": 0.176, "unit": "%"}, {"measurement": "Accuracy", "setting": "[2]; LLOQ: 10 pg/ml, 8 h at RT", "value": "90.4% and 94.3% and 63.8* % and 77.5* % and 83.1% and 101% and 87.9%"}, {"measurement": "Accuracy, Intra-assay Mean", "setting": "[2]; LLOQ: 10 pg/ml, Baseline", "value": 91.1, "unit": "%"}, {"measurement": "Found at, Intra-assay Mean", "setting": "[2]; LLOQ: 10 pg/ml, Baseline", "value": 9.11, "unit": "pg/mL"}, {"measurement": "Accuracy", "setting": "[2]; LLOQ: 10 pg/ml, Baseline", "value": "95% and 88.9% and 89.4%"}, {"measurement": "Accuracy, Intra-assay Mean", "setting": "[2]; QCHIGH: 1000 pg/ml, 8 h at RT", "value": 95.1, "unit": "%"}, {"measurement": "Found at, Intra-assay Mean", "setting": "[2]; QCHIGH: 1000 pg/ml, 8 h at RT", "value": 951, "unit": "pg/mL"}, {"measurement": "Change in concentration [%]", "setting": "[2]; QCHIGH: 1000 pg/ml", "value": "−1.51", "unit": "%"}, {"measurement": "Accuracy", "setting": "[2]; QCHIGH: 1000 pg/ml, 8 h at RT", "value": "96% and 100% and 91.8% and 94.6% and 93.6% and 95.8% and 93.9%"}, {"measurement": "Accuracy, Intra-assay Mean", "setting": "[2]; QCHIGH: 1000 pg/ml, Baseline", "value": 96.6, "unit": "%"}, {"measurement": "Found at, Intra-assay Mean", "setting": "[2]; QCHIGH: 1000 pg/ml, Baseline", "value": 966, "unit": "pg/mL"}, {"measurement": "Accuracy", "setting": "[2]; QCHIGH: 1000 pg/ml, Baseline", "value": "97.7% and 96.2% and 95.9%"}, {"measurement": "Accuracy, Intra-assay Mean", "setting": "[2]; QCLOW: 25 pg/ml, 8 h at RT", "value": 96.4, "unit": "%"}, {"measurement": "Found at, Intra-assay Mean", "setting": "[2]; QCLOW: 25 pg/ml, 8 h at RT", "value": 24.1, "unit": "pg/mL"}, {"measurement": "Change in concentration [%]", "setting": "[2]; QCLOW: 25 pg/ml", "value": 1.1, "unit": "%"}, {"measurement": "Accuracy", "setting": "[2]; QCLOW: 25 pg/ml, 8 h at RT", "value": "89.2% and 93.3% and 97.6% and 102% and 103% and 97.1% and 91.9%"}, {"measurement": "Accuracy, Intra-assay Mean", "setting": "[2]; QCLOW: 25 pg/ml, Baseline", "value": 95.3, "unit": "%"}, {"measurement": "Found at, Intra-assay Mean", "setting": "[2]; QCLOW: 25 pg/ml, Baseline", "value": 23.8, "unit": "pg/mL"}, {"measurement": "Accuracy", "setting": "[2]; QCLOW: 25 pg/ml, Baseline", "value": "94.7% and 91.5% and 99.8%"}]}]}
